Each block holds one compound with its values, some of them ahead of it.
Columns and labels:
[1] = molecular target: T1, murine recombinant apoM (r-apoM) (Mus musculus, UniProt Q9Z1R3); test: intrinsic fluorescence quenching of r-apoM by S1P; type: binding; details: r-apoM 0.7 μM; S1P 0-3.2 μmol/L; excitation 295 nm, emission 345 nm
T1 construct: A truncated mouse r-apoM containing the lipocalin domain but lacking the hydrophobic signal peptide was produced in Escherichia coli; made in house; host or cells: Escherichia coli
T1 sequence (Q9Z1R3 22-190): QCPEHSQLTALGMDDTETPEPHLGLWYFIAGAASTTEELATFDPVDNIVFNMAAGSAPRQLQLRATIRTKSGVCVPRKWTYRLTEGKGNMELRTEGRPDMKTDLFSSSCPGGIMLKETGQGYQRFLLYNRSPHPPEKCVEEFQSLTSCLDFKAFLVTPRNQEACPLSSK
Experimental: FIG. 3. […] A truncated mouse r-apoM containing the lipocalin domain but lacking the hydrophobic signal peptide was produced in Escherichia coli. The r-apoM (0.7 μM) was incubated with increasing concentrations of S1P (final concentration: 0-3.2 μmol/L). The intrinsic fluorescence of apoM was measured with excitation at 295 nm and emission at 345 nm. The data are mean±SEM (n=3).
Intrinsic fluorescence quenching was studied after addition of S1P to 0.7 μM murine recombinant apoM (r-apoM) (SEVVANA et al., J. Mol. Biol, 393:920-936 (2009)). Because it is possible that murine r-apoM binds and contains myristic acid in a manner similar to that of its human counterpart (SEVVANA et al., J. Mol. Biol, 393:920-936 (2009)), the binding data are reported as IC50 values. This approach also allows S1P binding to murine r-apoM to be compared directly with the previous data on human apoM-S1P binding.

recombinant human apoM = molecular target: T2, recombinant human apoM (Homo sapiens, UniProt O95445); details: recombinant human apoM expressed in E. coli; SEVVANA et al. 2009; read-out: IC50 for displacement of myristic acid from apoM; cited from earlier work
T2 construct: host or cells: E. coli
T2 sequence (O95445 whole entry): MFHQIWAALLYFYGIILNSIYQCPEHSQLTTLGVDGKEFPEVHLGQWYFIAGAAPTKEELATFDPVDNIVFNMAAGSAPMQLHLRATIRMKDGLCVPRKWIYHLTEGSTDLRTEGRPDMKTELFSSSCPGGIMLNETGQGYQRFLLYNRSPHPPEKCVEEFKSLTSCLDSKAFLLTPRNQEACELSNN

HUVEC [2] = test: HUVEC migration (chemotaxis chamber) assay; type: cell-based, human
Experimental: FIG. 4. ApoM-bound S1P activates S1P1-mediated intracellular signaling pathways and affects migration of HUVEC. (A) Confocal microscopy of HEK293 cells stably expressing S1P1-GFP. Cells were serum starved, stimulated for 1 h with indicated ligands, fixed and imaged. ApoM^+HDL (equivalent to ˜100 nM S1P as determined by LC/MS/MS) or ApoM^−HDL was used at 100 μg/ml. Fatty acid free BSA and r-apoM were complexed with S1P and used at the final concentration of 100 nM (equimolar for both protein and lipid). Scale bar, 20 μm. […] Activation of p44/42, and Akt was examined by western blot analysis using phospho-specific antibodies. (C) HUVEC were serum starved and pre-treated with 1 μM VPC44116 for 30 min where indicated and subjected to migration assay with 10 μg/ml apoM^+HDL (10 nM S1P) or 10 μg/ml apoM^−HDL or 10 nM albumin-S1P. Data are mean±SD, n=3. * p<0.01. (D) Microscopy of HUVEC that were serum starved and stimulated with 100 μg/ml apoM^+HDL, apoM^−HDL, 100 nM albumin-S1P, r-apoM-S1P or 100 nM S1P-free r-apoM for 1 h. […] Scale bar, 20 μm. […]
General Methods. […] Numerical differences were analyzed with two-tailed Student's t test.
Migration Assays. […] The filter was scanned, and the color density of each well was quantified using ImageJ software. […]

endogenous S1P1 receptor = test: p44/42 and Akt activation in HUVEC (western blot, phospho-specific antibodies); type: cell-based, human; details: 1 μM VPC44116 pre-treatment 30 min
Experimental: (§1) FIG. 4. ApoM-bound S1P activates S1P1-mediated intracellular signaling pathways and affects migration of HUVEC. (A) Confocal microscopy of HEK293 cells stably expressing S1P1-GFP. Cells were serum starved, stimulated for 1 h with indicated ligands, fixed and imaged. ApoM^+HDL (equivalent to ˜100 nM S1P as determined by LC/MS/MS) or ApoM^−HDL was used at 100 μg/ml. Fatty acid free BSA and r-apoM were complexed with S1P and used at the final concentration of 100 nM (equimolar for both protein and lipid). Scale bar, 20 μm. […] Activation of p44/42, and Akt was examined by western blot analysis using phospho-specific antibodies. (C) HUVEC were serum starved and pre-treated with 1 μM VPC44116 for 30 min where indicated and subjected to migration assay with 10 μg/ml apoM^+HDL (10 nM S1P) or 10 μg/ml apoM^−HDL or 10 nM albumin-S1P. Data are mean±SD, n=3. * p<0.01. (D) Microscopy of HUVEC that were serum starved and stimulated with 100 μg/ml apoM^+HDL, apoM^−HDL, 100 nM albumin-S1P, r-apoM-S1P or 100 nM S1P-free r-apoM for 1 h. […] Scale bar, 20 μm. HUVEC were serum starved and stimulated for 5 min with 30 nM albumin-S1P, r-apoM-S1P, 10 μg/mL ApoM+ HDL, or 30 nM S1P-free r-apoM (E) or with increasing concentrations of albumin or r-apoM-S1P (F). […]
(§2) General Methods. […] Numerical differences were analyzed with two-tailed Student's t test. […]

S1P1 receptor = molecular target: T3, S1P1 receptor (Homo sapiens, UniProt P21453); test: S1P1 internalization in HEK293 cells stably expressing S1P1-GFP; type: cell-based; details: stimulated 1 h; HDL 100 μg/ml; S1P complexes 100 nM
T3 construct: expressed in transfected cells
T3 sequence (P21453 whole entry): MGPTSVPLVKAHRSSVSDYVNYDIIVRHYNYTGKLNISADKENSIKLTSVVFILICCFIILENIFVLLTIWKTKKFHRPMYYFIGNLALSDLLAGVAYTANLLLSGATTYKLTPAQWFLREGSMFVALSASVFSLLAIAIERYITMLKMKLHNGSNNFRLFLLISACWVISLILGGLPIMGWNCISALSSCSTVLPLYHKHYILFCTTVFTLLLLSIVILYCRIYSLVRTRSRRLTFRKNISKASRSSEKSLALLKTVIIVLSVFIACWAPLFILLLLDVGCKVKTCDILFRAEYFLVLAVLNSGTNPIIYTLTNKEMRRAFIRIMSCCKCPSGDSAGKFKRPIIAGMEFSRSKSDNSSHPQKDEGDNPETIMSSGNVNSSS
Experimental: as §1, §2

HUVEC [3] = test: adherens junction assembly assay (VE-cadherin immunostaining) in HUVEC; type: cell-based, human; details: HUVEC stimulated 1 h; HDL 100 μg/ml; S1P complexes or r-apoM 100 nM
Experimental: as §1, with “(F). Activation of p44/42 and Akt was examined by Western blot analysis using phospho-specific antibodies.” for “(F).”

quenching of intrinsic fluorescence of mouse r-apoM [1]: quenches the intrinsic fluorescence
Compound: CCCCCCCCCCCCC/C=C/[C@@H](O)[C@@H](N)COP(=O)(O)O [S1P, Sphingosine-1-phosphate]
IC50 (recombinant human apoM): 900 nM

Compound: CCCCCCCCc1cccc(NC(=O)[C@H](N)CCP(=O)(O)O)c1 [VPC44116]
effect of S1P1 antagonist pre-treatment on apoM+HDL-stimulated chemotaxis (HUVEC [2]; 1 μM VPC44116 for 30 min, 10 μg/ml apoM+HDL): abolished
effect of S1P1 antagonist on apoM+HDL-induced p44/42 and Akt phosphorylation (endogenous S1P1 receptor): essentially abolished
effect of S1P1 antagonist on cells stimulated by FCS (endogenous S1P1 receptor; FCS stimulation): no inhibitory effects

internalization of GFP-S1P1 receptor (S1P1 receptor): robust internalization
Compound: albumin-bound S1P: S1P complexed with equi-molar fatty acid free bovine serum albumin, used as a positive control [reference compound]
chemotaxis of HUVEC toward chemoattractant (HUVEC [2]; serum-starved HUVEC, 4 h at 37° C.): worked as chemoattractants in a concentration-dependent manner
adherens junction and F-actin formation (HUVEC [3]): well-spread, contained F-actin and formed adherens junctions

Source: patent US9592268B2, “Endothelium protective materials and methods of use” (CORNELL UNIVERSITY, priority 2011, dated 2017)
